Measurements: ChEMBL document CHEMBL2169843 (J Med Chem, 2012)

Biological target: Sigma non-opioid intracellular receptor 1 (Cavia porcellus, UniProt Q60492)
Experiment: Displacement of [3H]-(+)-pentazocine from sigma-1 receptor in guinea pig brain homogenates
Assay type: tissue-based

Sequence of Sigma non-opioid intracellular receptor 1 (Q60492 whole entry): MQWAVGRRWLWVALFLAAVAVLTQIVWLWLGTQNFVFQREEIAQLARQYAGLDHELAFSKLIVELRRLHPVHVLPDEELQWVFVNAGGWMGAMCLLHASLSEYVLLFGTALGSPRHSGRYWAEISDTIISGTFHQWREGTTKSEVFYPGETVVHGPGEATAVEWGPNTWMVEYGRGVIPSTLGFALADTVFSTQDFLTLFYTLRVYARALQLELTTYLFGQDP

| Ki | SMILES |
| --- | --- |
| 11 nM | C[C@]1(c2ccccc2)OCC[C@H](CCNCc2ccccc2)O1 |
| > 10000 nM | CC(C)(C)[C@@]1(c2ccccc2)OCC[C@@H](CCN)O1 |
| 6 nM | c1ccc(CNCC[C@@H]2CCO[C@H](c3ccccc3)O2)cc1 |
| 128 nM | CC(C)(C)[C@@]1(c2ccccc2)OCC[C@@H](CCNCc2ccccc2)O1 |
| 17 nM | C[C@@]1(c2ccccc2)OCC[C@@H](CCNCc2ccccc2)O1 |
| > 10000 nM | CC[C@]1(c2ccccc2)OCC[C@H](CCN)O1 |
| 50 nM | c1ccc(CNCC[C@H]2CCO[C@@H](c3ccccc3)O2)cc1 |
| > 10000 nM | CCC[C@@]1(c2ccccc2)OCC[C@@H](CCN)O1 |
| > 10000 nM | CC[C@@]1(c2ccccc2)OCC[C@@H](CCN)O1 |
| 136 nM | CCC[C@]1(c2ccccc2)OCC[C@H](CCNCc2ccccc2)O1 |
| > 10000 nM | CCC1(c2ccccc2)OCCC(CCN)O1 (racemic) |
| 28 nM | CC[C@]1(c2ccccc2)OCC[C@H](CCNCc2ccccc2)O1 |
| 20 nM | CC[C@@]1(c2ccccc2)OCC[C@@H](CCNCc2ccccc2)O1 |
| > 10000 nM | CCC[C@]1(c2ccccc2)OCC[C@H](CCN)O1 |
| 72 nM | CCC[C@@]1(c2ccccc2)OCC[C@@H](CCNCc2ccccc2)O1 |
| 253 nM | CC(C)(C)[C@]1(c2ccccc2)OCC[C@H](CCNCc2ccccc2)O1 |
| > 10000 nM | CC(C)(C)[C@]1(c2ccccc2)OCC[C@H](CCN)O1 |

| SMILES | Ki |
| --- | --- |
| NCC[C@@H]1CCO[C@H](c2ccccc2)O1 | > 10000 nM |
| NCCC1CCOC(c2ccccc2)O1 (racemic) | > 10000 nM |
| C[C@]1(c2ccccc2)OCC[C@H](CCN)O1 | > 10000 nM |
| NCC[C@H]1CCO[C@@H](c2ccccc2)O1 | > 10000 nM |
| C[C@@]1(c2ccccc2)OCC[C@@H](CCN)O1 | > 10000 nM |
